From ChEMBL document CHEMBL1139538, “ERbeta ligands. 3. Exploiting two binding orientations of the 2-phenylnaphthalene scaffold to achieve ERbeta selectivity” (J Med Chem, 2005)

Columns and labels:
Estrogen receptor = target: T1, Estrogen receptor (Homo sapiens, UniProt P03372)
T1 sequence (P03372 whole entry): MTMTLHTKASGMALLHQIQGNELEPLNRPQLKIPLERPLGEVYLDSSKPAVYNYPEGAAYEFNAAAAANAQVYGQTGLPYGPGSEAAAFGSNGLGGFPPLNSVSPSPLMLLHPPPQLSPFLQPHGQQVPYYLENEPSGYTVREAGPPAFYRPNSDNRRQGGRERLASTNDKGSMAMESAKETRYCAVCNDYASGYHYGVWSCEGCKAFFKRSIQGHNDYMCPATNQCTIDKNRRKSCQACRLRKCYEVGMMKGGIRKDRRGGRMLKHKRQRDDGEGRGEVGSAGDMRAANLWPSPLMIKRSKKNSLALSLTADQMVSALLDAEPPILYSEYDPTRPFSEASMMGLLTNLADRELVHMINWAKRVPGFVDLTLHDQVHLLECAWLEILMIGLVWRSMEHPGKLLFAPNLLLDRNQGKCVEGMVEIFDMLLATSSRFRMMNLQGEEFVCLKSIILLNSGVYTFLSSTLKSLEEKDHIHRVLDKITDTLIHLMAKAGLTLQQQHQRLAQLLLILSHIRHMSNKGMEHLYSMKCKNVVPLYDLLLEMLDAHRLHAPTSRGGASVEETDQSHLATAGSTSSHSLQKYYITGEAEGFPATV
Description: Inhibition of [3H]17-beta-estradiol binding to human estrogen receptor alpha expressed in Escherichia coli

Estrogen receptor beta = Estrogen receptor beta (Homo sapiens, UniProt Q92731)
Rattus norvegicus [1] = assay: Effect of oral administration of 10 mg/kg compound on colon histology (haemoglobin) in HLA-B27 transgenic rats; format: functional
[2] = target: T2, Estrogen receptor (Rattus norvegicus) (UniProt P06211+Q62986)
Description: Effect on uterine weight of immature rats at 2 mg/rat/day dose after 3 days

[3] = target: T2, Estrogen receptor (Rattus norvegicus); remark: listed apart in the source
Description: Effect on uterine weight in immature rats in combination with 17R-ethinyl-17-beta-estradiol after 3 days

Rattus norvegicus [4] = assay: Effect of oral administration of 1 mg/kg compound on colon histology (haemoglobin) in HLA-B27 transgenic rats; format: functional

Chain of Estrogen receptor beta (Q92731 whole entry): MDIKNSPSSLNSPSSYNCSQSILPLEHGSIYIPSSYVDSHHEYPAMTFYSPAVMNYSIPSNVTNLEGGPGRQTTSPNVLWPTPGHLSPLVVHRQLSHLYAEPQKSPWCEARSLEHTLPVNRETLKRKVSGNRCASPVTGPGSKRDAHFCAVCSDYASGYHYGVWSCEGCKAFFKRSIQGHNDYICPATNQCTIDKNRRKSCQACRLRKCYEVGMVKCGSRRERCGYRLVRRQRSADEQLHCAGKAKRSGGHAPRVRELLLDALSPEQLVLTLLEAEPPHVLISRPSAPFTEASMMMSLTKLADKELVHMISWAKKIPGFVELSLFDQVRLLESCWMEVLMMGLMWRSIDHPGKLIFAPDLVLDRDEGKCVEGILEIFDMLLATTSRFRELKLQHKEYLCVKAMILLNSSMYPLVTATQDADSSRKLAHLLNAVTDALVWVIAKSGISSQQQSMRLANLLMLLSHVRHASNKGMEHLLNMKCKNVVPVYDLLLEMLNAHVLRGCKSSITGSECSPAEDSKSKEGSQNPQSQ

Row | Structure (SMILES) | IC50 (Estrogen receptor) [nM] | IC50 (Estrogen receptor beta) [nM] | other results
1 | CCc1cc(-c2ccc(O)c(F)c2)cc2ccc(O)cc12 | 235 | 2.4 | –
2 | N#Cc1cc(-c2ccc(O)c(F)c2)cc2ccc(O)cc12 | – | – | Activity (Rattus norvegicus [1]): 0.35 mg/mL; Weight [2]: 23.3 mg; Weight [3]: 81.9 mg; Activity (Rattus norvegicus [4]): 0.45 mg/mL
3 | Oc1ccc2cc(-c3ccccc3O)ccc2c1 | > 5000 | 2000 | –
4 | N#Cc1cc(O)c(Br)c2ccc(-c3ccc(O)c(F)c3)cc12 | 116 | 4.5 | –
5 | Oc1ccc(-c2ccc3cc(O)ccc3c2)cc1 | 211 | 16.3 | –
6 | Oc1ccc2cc(-c3cc(F)c(O)c(F)c3)ccc2c1Cl | – | 10.6 | –
7 | Oc1ccc2cc(-c3ccc(O)c(Cl)c3)ccc2c1 | 107 | 11 | –
8 | Oc1ccc(-c2cc(F)c3c(Cl)c(O)ccc3c2)cc1 | 40 | 1.1 | –
9 | Oc1cccc(-c2ccc3cc(O)ccc3c2)c1 | – | 30 | –
10 | C#Cc1cc(-c2ccc(O)c(F)c2)cc2ccc(O)cc12 | 247 | 6.3 | –
11 | Oc1ccc(-c2ccc3c(Cl)c(O)ccc3c2)cc1 | 91 | – | –
12 | Oc1cccc(-c2ccc3ccc(O)cc3c2)c1 | 2640 | 566 | –
13 | C=Cc1cc(-c2ccc(O)c(F)c2)cc2ccc(O)cc12 | 254 | 4.4 | –
14 | Cc1cc(O)ccc1-c1ccc2c(Cl)c(O)ccc2c1 | 40 | – | –
15 | Oc1ccc(-c2ccc3c(Cl)c(O)ccc3c2)c(Cl)c1 | 36 | 3.3 | –
16 | N#Cc1cc(O)cc2ccc(-c3ccc(O)c(F)c3)cc12 | 96 | 2.1 | –
17 | N#Cc1cc(-c2c(F)cc(O)cc2F)cc2ccc(O)cc12 | 45 | 2.2 | –
18 | N#Cc1cc(-c2ccc(O)cc2)cc2ccc(O)c(Cl)c12 | 109 | 6 | –
19 | CCc1cc(O)cc2ccc(-c3ccc(O)c(F)c3)cc12 | 113 | 2.5 | –
20 | Oc1cc(F)c(-c2ccc3c(Cl)c(O)ccc3c2)c(F)c1 | 35 | 3.4 | –

Row | Structure (SMILES) | IC50 (Estrogen receptor) [nM] | IC50 (Estrogen receptor beta) [nM] | other results
21 | Oc1ccc2cc(-c3ccccc3)ccc2c1 | 1340 | 374 | –
22 | N#Cc1cc(-c2ccc(O)cc2F)cc2ccc(O)cc12 | 26 | 0.5 | –
23 | Oc1ccc(-c2ccc3c(F)c(O)ccc3c2)cc1 | 77 | 7 | –
24 | N#Cc1cc(-c2ccc(O)c(F)c2)cc2ccc(O)c(F)c12 | 312 | 5.6 | –
25 | Oc1ccc2ccc(-c3ccccc3)cc2c1 | 3400 | – | –
26 | N#Cc1cc(O)c(Cl)c2ccc(-c3ccc(O)c(F)c3)cc12 | 55 | 2.6 | –
27 | N#Cc1cc(-c2ccc(O)cc2)cc2ccc(O)c(Br)c12 | 131 | 12 | –
28 | Oc1ccc(-c2cc(F)c3cc(O)ccc3c2)cc1 | 22 | 1.6 | –
29 | CC#Cc1cc(-c2ccc(O)c(F)c2)cc2ccc(O)cc12 | 343 | 10 | –
30 | Oc1ccc(-c2ccc3c(Cl)c(O)ccc3c2)c(F)c1 | 58 | 1.2 | –
31 | N#Cc1cc(O)c(C#N)c2ccc(-c3ccc(O)c(F)c3)cc12 | 877 | 28 | –
32 | Oc1cccc(-c2ccc3c(O)cccc3c2)c1 | 1450 | 205 | –
33 | Oc1ccc(-c2ccc3c(O)cccc3c2)cc1 | – | 5.8 | –
34 | Oc1ccc2cc(-c3ccc(O)c(F)c3)ccc2c1 | – | 5 | –
35 | Oc1ccc2cc(-c3ccc(O)c(F)c3)cc(F)c2c1 | 21 | 1.5 | –
36 | Oc1ccc(-c2ccc3cc(O)ccc3c2)c(Cl)c1 | – | 1.4 | –
37 | Oc1ccc(-c2ccc3c(Br)c(O)ccc3c2)cc1 | 266 | 13 | –
38 | Oc1ccc2cc(-c3cc(F)c(O)cc3F)ccc2c1 | 27 | 2.8 | –
39 | Oc1ccc(-c2cc(Cl)c3cc(O)ccc3c2)cc1 | 30 | 2.3 | –
40 | N#Cc1cc(O)c(Cl)c2ccc(-c3ccc(O)cc3)cc12 | 98 | 3 | –

Row | Structure (SMILES) | IC50 (Estrogen receptor) [nM] | IC50 (Estrogen receptor beta) [nM] | other results
41 | C#Cc1cc(O)cc2ccc(-c3ccc(O)c(F)c3)cc12 | 73 | 1.2 | –
42 | Oc1cc(F)c(-c2ccc3cc(O)ccc3c2)c(F)c1 | 10.3 | 2.3 | –
43 | CC#Cc1cc(O)cc2ccc(-c3ccc(O)c(F)c3)cc12 | 180 | 5.5 | –
44 | Oc1ccc(-c2ccc3c(Cl)c(O)ccc3c2)cc1F | – | 4 | –
45 | O=Cc1cc(O)cc2ccc(-c3ccc(O)c(F)c3)cc12 | 73 | 1.1 | –
46 | Cc1c(O)cc(C#N)c2cc(-c3ccc(O)c(F)c3)ccc12 | 406 | 6 | –
47 | O=Cc1cc(-c2ccc(O)c(F)c2)cc2ccc(O)cc12 | 231 | 3.4 | –
48 | Oc1ccc(-c2ccc3c(-c4ccccc4)c(O)ccc3c2)cc1 | 1230 | 748 | –
49 | Oc1ccc(-c2cc(Cl)c3c(Cl)c(O)ccc3c2)cc1 | 43 | 9 | –
50 | Oc1cc(F)c(-c2ccc3c(Cl)c(O)ccc3c2)cc1F | 118 | 8.5 | –
51 | Cc1cc(O)ccc1-c1ccc2cc(O)ccc2c1 | 40 | 10 | –
52 | COc1cc(O)ccc1-c1ccc2cc(O)ccc2c1 | 174 | – | –
53 | O=[N+]([O-])c1c(O)ccc2cc(-c3ccc(O)cc3)ccc12 | 709 | 199 | –
54 | C=Cc1cc(O)cc2ccc(-c3ccc(O)c(F)c3)cc12 | 527 | 7.3 | –
55 | Oc1ccc2cc(-c3cc(F)c(O)c(F)c3)ccc2c1 | – | 8.4 | –
56 | Oc1ccc(-c2ccc3ccc(O)cc3c2)cc1 | 442 | 44 | –
57 | N#Cc1cc(-c2cc(F)c(O)cc2F)cc2ccc(O)cc12 | 186 | 6.9 | –
58 | N#Cc1cc(O)cc2ccc(-c3ccc(O)cc3)cc12 | 84 | 2 | –
59 | Oc1ccc(-c2ccc3ccccc3c2)cc1 | 638 | – | –
60 | Oc1ccc(-c2ccc3cc(O)ccc3c2)c(F)c1 | 24 | 2 | –
